Experiments:
[1] = system: NCI human cancer cell-lines; experiment: In vitro inhibition of growth in human cancer cell lines (all cell groups); type: cell-based; details: on average, all cell groups tested
HL-60(TB) = experiment: cells; type: cell-based, human
K-562 = experiment: NCI human cancer cell line growth inhibition: K-562; type: cell-based; details: K-562, Leukemia
MOLT-4 = experiment: NCI human cancer cell line growth inhibition: MOLT-4; type: cell-based; details: MOLT-4, Leukemia
RPMI-8226 = experiment: NCI human cancer cell line growth inhibition: RPMI-8226; type: cell-based; details: RPMI-8226, Leukemia
SR = experiment: NCI human cancer cell line growth inhibition: SR; type: cell-based; details: Leukemia
A549/ATCC = experiment: NCI human cancer cell line growth inhibition: A549/ATCC; type: cell-based; details: NSC Lung
EKVX = experiment: NCI human cancer cell line growth inhibition: EKVX; type: cell-based; details: NSC Lung
HOP-92 = experiment: NCI human cancer cell line growth inhibition: HOP-92; type: cell-based; details: HOP-92, NSC Lung
HCT-15 = experiment: NCI human cancer cell line growth inhibition: HCT-15; type: cell-based; details: Homo sapiens; HCT-15, Colon
KM12 = experiment: NCI human cancer cell line growth inhibition: KM12; type: cell-based; details: KM12, Colon
SW-620 = experiment: NCI human cancer cell line growth inhibition: SW-620; type: cell-based; details: SW-620, Colon
SF-295 = experiment: NCI human cancer cell line growth inhibition: SF-295; type: cell-based; details: SF-295, CNS
SF-539 = experiment: NCI human cancer cell line growth inhibition: SF-539; type: cell-based; details: SF-539, CNS
SNB-19 = experiment: NCI human cancer cell line growth inhibition: SNB-19; type: cell-based; details: SNB-19, CNS
DU-145 = experiment: NCI human cancer cell line growth inhibition: DU-145; type: cell-based; details: DU-145, Prostate
LOX IMVI = experiment: NCI human cancer cell line growth inhibition: LOX IMVI; type: cell-based; details: Melanoma
MI4 = experiment: NCI human cancer cell line growth inhibition: MI4; type: cell-based; details: MI4, Melanoma
SK-MEL-2 = experiment: NCI human cancer cell line growth inhibition: SK-MEL-2; type: cell-based; details: SK-MEL-2, Melanoma
SK-MEL-28 = experiment: NCI human cancer cell line growth inhibition: SK-MEL-28; type: cell-based; details: SK-MEL-28, Melanoma
UACC-257 = experiment: NCI human cancer cell line growth inhibition: UACC-257; type: cell-based; details: UACC-257, Melanoma
IGROVI = experiment: NCI human cancer cell line growth inhibition: IGROVI; type: cell-based; details: Ovarian
OVCAR-3 = experiment: NCI human cancer cell line growth inhibition: OVCAR-3; type: cell-based; details: OVCAR-3, Ovarian
OVCAR-4 = experiment: NCI human cancer cell line growth inhibition: OVCAR-4; type: cell-based; details: OVCAR-4, Ovarian
OVCAR-5 = experiment: NCI human cancer cell line growth inhibition: OVCAR-5; type: cell-based; details: OVCAR-5, Ovarian
OVCAR-8 = experiment: NCI human cancer cell line growth inhibition: OVCAR-8; type: cell-based; details: OVCAR-8, Ovarian
SK-OV-3 = experiment: NCI human cancer cell line growth inhibition: SK-OV-3; type: cell-based; details: SK-OV-3, Ovarian
ACHN = experiment: NCI human cancer cell line growth inhibition: ACHN; type: cell-based; details: Renal
CAKI-1 = experiment: NCI human cancer cell line growth inhibition: CAKI-1; type: cell-based; details: CAKI-1, Renal
SN12C = experiment: NCI human cancer cell line growth inhibition: SN12C; type: cell-based; details: Renal
TK-10 = experiment: NCI human cancer cell line growth inhibition: TK-10; type: cell-based; details: TK-10, Renal
MCF7 = experiment: NCI human cancer cell line growth inhibition: MCF7; type: cell-based; details: MCF7, Breast
NCI/ADR-RES = type: cell-based, human; details: Homo sapiens, Breast, read-out: Growth inhibition (GI50) (converted)
MDA-MB-231/ATCC = experiment: NCI human cancer cell line growth inhibition: MDA-MB-231/ATCC; type: cell-based; details: Breast
BT-549 = experiment: NCI human cancer cell line growth inhibition: BT-549; type: cell-based; details: BT-549, Breast
HS 578T = experiment: NCI human cancer cell line growth inhibition: HS 578T; type: cell-based; details: Breast

SMILES: CCCCCCCC(=O)O[C@H]1/C(=C/C(=O)OC)C[C@H]2C[C@H](CO)OC(=O)C[C@H](O)C[C@@H]3CCCC(CC4CCO[C@H](/C=C/C(C)(C)[C@]1(O)O2)O4)O3 [Formula IIa (702.1)]
- potency compared with bryostatin-1 [1]: at least as potent, on average, as bryostatin-1
- Difference (GI50 desmethyl vs Bryo-1) (HL-60(TB)): −0.14
- GI50 (HL-60(TB); Homo sapiens, HL-60, read-out: Growth inhibition (GI50)): 1.45 µM
- GI50 (K-562; Homo sapiens, K562): 0.0316 µM
- Difference (GI50 desmethyl vs Bryo-1) (K-562): −2.10
- more active than bryostatin-1 by (K-562): more than 2 orders of magnitude
- GI50 (MOLT-4; Homo sapiens): < 0.01 µM
- Difference (GI50 desmethyl vs Bryo-1) (MOLT-4): −2.50
- more active than bryostatin-1 by (MOLT-4): more than 2 orders of magnitude
- GI50 (RPMI-8226; Homo sapiens): 1.51 µM
- Difference (GI50 desmethyl vs Bryo-1) (RPMI-8226): −0.82
- GI50 (SR; Homo sapiens): 7.94 µM
- Difference (GI50 desmethyl vs Bryo-1) (SR): −0.10
- GI50 (A549/ATCC; Homo sapiens): 0.24 µM
- Difference (GI50 desmethyl vs Bryo-1) (A549/ATCC): −1.42
- GI50 (EKVX; Homo sapiens): 2.63 µM
- Difference (GI50 desmethyl vs Bryo-1) (EKVX): −0.28
- Difference (GI50 desmethyl vs Bryo-1) (HOP-92): 0.63
- GI50 (HOP-92; Homo sapiens): 21.4 µM
- GI50 (HCT-15): 17.4 µM
- GI50 (KM12; Homo sapiens): 4.57 µM
- Difference (GI50 desmethyl vs Bryo-1) (KM12): −0.14
- GI50 (SW-620; Homo sapiens): 7.59 µM
- Difference (GI50 desmethyl vs Bryo-1) (SW-620): 0.38
- GI50 (SF-295; Homo sapiens): 0.891 µM
- Difference (GI50 desmethyl vs Bryo-1) (SF-295): −0.85
- GI50 (SF-539; Homo sapiens): 1.7 µM
- Difference (GI50 desmethyl vs Bryo-1) (SF-539): −0.77
- GI50 (SNB-19; Homo sapiens): 6.31 µM
- Difference (GI50 desmethyl vs Bryo-1) (SNB-19): −0.20
- Difference (GI50 desmethyl vs Bryo-1) (DU-145): −0.02
- GI50 (DU-145; Homo sapiens): 9.55 µM
- GI50 (LOX IMVI; Homo sapiens): 3.39 µM
- Difference (GI50 desmethyl vs Bryo-1) (LOX IMVI): −0.37
- GI50 (MI4; Homo sapiens): 5.5 µM
- Difference (GI50 desmethyl vs Bryo-1) (MI4): −0.26
- GI50 (SK-MEL-2; Homo sapiens): 9.55 µM
- Difference (GI50 desmethyl vs Bryo-1) (SK-MEL-2): 0.18
- GI50 (SK-MEL-28; Homo sapiens): 21.4 µM
- Difference (GI50 desmethyl vs Bryo-1) (SK-MEL-28): 0.43
- GI50 (UACC-257; Homo sapiens): 7.41 µM
- Difference (GI50 desmethyl vs Bryo-1) (UACC-257): −0.03
- GI50 (IGROVI; Homo sapiens): 13.2 µM
- Difference (GI50 desmethyl vs Bryo-1) (IGROVI): 0.42
- GI50 (OVCAR-3; Homo sapiens): 14.8 µM
- Difference (GI50 desmethyl vs Bryo-1) (OVCAR-3): 0.27
- GI50 (OVCAR-4; Homo sapiens): 7.08 µM
- Difference (GI50 desmethyl vs Bryo-1) (OVCAR-4): 0.35
- GI50 (OVCAR-5; Homo sapiens): 5.25 µM
- Difference (GI50 desmethyl vs Bryo-1) (OVCAR-5): −0.28
- GI50 (OVCAR-8; Homo sapiens): 17 µM
- Difference (GI50 desmethyl vs Bryo-1) (OVCAR-8): 0.33
- GI50 (SK-OV-3; Homo sapiens): 50.1 µM
- Difference (GI50 desmethyl vs Bryo-1) (SK-OV-3): 0.80
- GI50 (ACHN; Homo sapiens): 1.15 µM
- Difference (GI50 desmethyl vs Bryo-1) (ACHN): −0.44
- Difference (GI50 desmethyl vs Bryo-1) (CAKI-1): −0.30
- GI50 (CAKI-1; Homo sapiens): 2 µM
- GI50 (SN12C; Homo sapiens): 2.57 µM
- Difference (GI50 desmethyl vs Bryo-1) (SN12C): −0.49
- GI50 (TK-10; Homo sapiens): 0.0933 µM
- Difference (GI50 desmethyl vs Bryo-1) (TK-10): −2.03
- more active than bryostatin-1 by (TK-10): more than 2 orders of magnitude
- GI50 (MCF7; Homo sapiens): 3.98 µM
- Difference (GI50 desmethyl vs Bryo-1) (MCF7): −0.20
- GI50 (NCI/ADR-RES): 18.2 µM
- Difference (GI50 desmethyl vs Bryo-1) (MDA-MB-231/ATCC): −0.49
- GI50 (MDA-MB-231/ATCC; Homo sapiens): 2.04 µM
- Difference (GI50 desmethyl vs Bryo-1) (BT-549): 0.39
- GI50 (BT-549; Homo sapiens): 19.5 µM
- Difference (GI50 desmethyl vs Bryo-1) (HS 578T): 0.02
- GI50 (HS 578T; Homo sapiens): 6.61 µM

Source: patent publication US7256286B2, “Bryostatin analogues, synthetic methods and uses” (The Board of Trustees of the Leland Stanford Junior …, priority 1999, dated 2007)
